“Also recorded” adds a separate entry of the source. Like-named read-outs stand apart in the source and are kept apart here.
How the values were obtained:
[1] = test system: small cell lung cancer; set-up: method as in PMID 31655296; conditions: cited from earlier work
[2] = test system: breast/ovarian cancer; set-up: method as in PMID 30347019; conditions: cited from earlier work
[3] = Treatment exposures, delays and dose reductions; type: in vivo, human
Source text: To proceed to the next cycle, lab parameters included ANC ≥ 1500/mm^3 and platelet count ≥ 100,000/mm^3, and all other toxicity considered by the investigator to be related to therapy with alisertib or gemcitabine must have resolved to grade ≤ 1 or to the subject’s baseline values. […] Thereafter, the subject was re-evaluated to determine continuation eligibility. Dose modification (Table S1B, 1C) was required for cycle initiations delayed > 1 week due to incomplete recovery from treatment-related toxicity.
Median number of cycles per subject was 3 (range 1–13), and median duration of treatment was 2.84 months (range 0.36–13.22). Similar median duration of treatment and cycles delivered were observed between the dose levels (Table S2). Proportion of planned dose received, defined as total dose received divided by total planned dose according to the dose level for alisertib and 1000 mg/m^2 for gemcitabine, was calculated according to each subject (Table S3) and each cycle (Fig. 1).

[4] = Plasma pharmacokinetics of gemcitabine and dFdU without and with alisertib, non-compartmental analysis; type: in vivo, human; conditions: for Percentage extrapolated AUC0->inf, Mean / Cmax / AUC(0-inf) / AUC(0-t): plasma, gemcitabine 1000 mg/m^2 IV; for Cmax / AUC(0-inf) / AUC(0-t): human, iv; for AUC(0-inf): read-out: AUC0->inf, Mean (converted); for AUC(0-t): read-out: AUC0->last, Mean (converted); for Effect of co-administered alisertib on NCA PK parameters (day 1 vs day 8): paired t test, P > 0.05
Method: (§1) Pharmacokinetic sampling was performed on the expanded cohort of subjects with pancreatic cancer treated at the RP2D. Alisertib was not administered on cycle 1, day 1 to enable gemcitabine pharmacokinetic sampling on day 1 and day 2 of cycle 1 in the absence of co-administered alisertib. This served as the reference baseline for comparison to gemcitabine pharmacokinetics when co-administered with alisertib on day 8 of cycle 1. On cycle 1 day 8, alisertib was administered within 10 min of the start of the gemcitabine infusion, and the second (evening) dose of alisertib was not administered to allow for gemcitabine measurement at the 24 h timepoint. Both the parent drug (gemcitabine, dFdC) and the metabolite (dFdU) were measured to evaluate changes in gemcitabine metabolism related to alisertib administration. Pharmacokinetic blood samples were collected with dipotassium ethylenediaminetetraacetic acid (K2EDTA) as the anticoagulant before treatment, immediately after gemcitabine infusion, and at additional pre-specified post-infusion timepoints. Actual timepoints were recorded for PK parameter evaluation. Measurement of plasma gemcitabine, dFdU, and alisertib concentrations are described in the Supplementary Methods.
(§2) Gemcitabine, dFdU and alisertib PK parameters were estimated using non-compartmental analysis (NCA) with Certara Phoenix WinNonlin 8.0 (Princeton, NJ), including mean peak concentration (Cmax) and exposure (Area Under the Curve, AUC). The AUC parameters were estimated using the linear-up-log-down trapezoidal rule. Tests of significance between day 1 and day 8 PK parameters were performed using paired t-tests with GraphPad Prism 6.07 (San Diego, CA).

[5] = human, in vivo, 28 days
Method: This was an open-label phase I clinical trial with two-phase design including a dose escalation and an expansion phase in pancreatic cancer. In the dose escalation phase, a standard 3 + 3 design was used to determine the maximum tolerated dose (MTD) of alisertib in combination with gemcitabine. Alisertib was administered orally twice daily (BID) on days 1–3, 8–10, and 15–17 of a 28-day treatment cycle. Gemcitabine was given concurrently at standard dosing of 1000 mg/m^2 intravenously on days 1, 8, 15. A starting dose of alisertib 20 mg BID was used in the dose escalation phase and was escalated in cohorts of at least three evaluable subjects at 30 mg BID, 40 mg BID, and 50 mg BID until MTD or the highest feasible dose level (Table S1). The dose of 50 mg BID was the highest dose allowable and was previously reported as the recommended phase II dose (RP2D) for alisertib monotherapy. In the expansion phase, subjects received the MTD or RP2D following the same cycle schedule. Dose adjustments were allowed for both drugs (Table S1B, 1C).
The MTD was defined as the highest dose tested in which fewer than 33% of subjects experienced DLT attributable to the study drugs, when at least six subjects were treated at that dose and evaluable for toxicity.
DLT was defined as any related (possibly, probably, or definitely) grade 3 non-hematologic toxicity or any attributable grade 4 toxicity. […]

[6] = set-up: method as in PMID 22753585, PMID 24879333, PMID 25302940; conditions: twice daily for 7 days in a 21-day cycle; cited from earlier work
[7] = test system: multiple solid organ malignancies; set-up: method as in PMID 25728526; conditions: cited from earlier work
[8] = set-up: method as in PMID 28852909; conditions: published literature; cited from earlier work
[9] = Plasma pharmacokinetics of alisertib, non-compartmental analysis; type: in vivo, human
Method: as §1, §2

[10] = test system: selected CYPs; set-up: method as in PMID 31911485; conditions: in vitro; cited from earlier work
[11] = test system: Aurora Kinase A (AKA) compared to Aurora Kinase B; set-up: method as in PMID 20382844, PMID 21556291; conditions: cited from earlier work
[12] = 1000 mg/m2, Day 1 (without alisertib), N 5
[13] = 1000 mg/m2, Day 8 (with alisertib), N 4
[14] = monotherapy trial of solid tumors

Which mPFS ([1]; 89 subjects in each arm) does the source give for `CC(=O)O[C@H]1C(=O)[C@@]2(C)[C@H]([C@H](OC(=O)c3ccccc3)[C@]3(O)C[C@H](OC(=O)[C@H](O)[C@@H](NC(=O)c4ccccc4)c4ccccc4)C(C)=C1C3(C)C)[C@]1(OC(C)=O)CO[C@@H]1C[C@@H]2O` [paclitaxel] here?
The mPFS was 2.17 months.

What about the Response rate [1] of the same compound?
The Response rate was 18%.

And the mPFS ([2]; breast/ovarian subjects)?
Its mPFS is 4.7 months.

And the Response rate ([2]; breast/ovarian subjects, p = 0.38)?
Its Response rate is 52%.

With `Nc1ccn([C@@H]2O[C@H](CO)[C@@H](O)C2(F)F)c(=O)n1` [gemcitabine] as the compound, how does the “Subjects who required dose delays” value ([3]; of 26 subjects) read?
The value was 16 subjects.

And the “Subjects who required dose omission” value ([3]; of 26 subjects)?
The value was 14 subjects.

What about the “Subjects with dose reductions” value ([3]; of 26 subjects) of the same compound?
Its value is 5 subjects.

What about the “Cycles given at a reduced dose” value ([3]; of 94 cycles delivered) of the same compound?
Its value is 10 cycles.

What about the “Cycles with delayed doses” value ([3]; of 94 cycles delivered) of the same compound?
The value was 43 cycles.

And the “Cycles with dose omissions” value ([3]; of 94 cycles delivered)?
The value was 17 cycles.

And the “Percentage extrapolated AUC0->inf, Mean” value ([4]; Day 1 (without alisertib), N 5)?
The value was 0.14%.

And the “Percentage extrapolated AUC0->inf, Mean” value ([4]; Day 8 (with alisertib), N 4)?
The value was 0.32%.

And the Cmax [4, 12]?
The Cmax was 7420 ng/mL.

And the AUC(0-inf) [4, 12]?
Its AUC(0-inf) is 3.6 µg·h/mL.

And the AUC(0-t) [4, 12]?
The AUC(0-t) was 3.6 µg·h/mL.

What about the Cmax [4, 13] of the same compound?
Its Cmax is 6240 ng/mL.

And the AUC(0-inf) [4, 13]?
Its AUC(0-inf) is 3.24 µg·h/mL.

What about the AUC(0-t) [4, 13] of the same compound?
Its AUC(0-t) is 3.23 µg·h/mL.

And the “Effect of co-administered alisertib on NCA PK parameters (day 1 vs day 8)” value [4]?
The value was “No significant changes; also recorded: not significantly affected”.

What does the source list for `COc1cc(Nc2ncc3c(n2)-c2ccc(Cl)cc2C(c2c(F)cccc2OC)=NC3)ccc1C(=O)O` [alisertib]?
Recommended phase 2 dose of alisertib combined with gemcitabine [5]: 50 mg; RP2D of alisertib monotherapy [6]: 50 mg; Rate of SAEs [7, 14]: 43%; Treatment-related adverse events: anemia [7, 14]: 10%; Treatment-related adverse events: leukopenia [7, 14]: 21%; Treatment-related adverse events: neutropenia [7, 14]: 43%; Response rates ([7]; monotherapy, depending on the primary tumor subtype): 5–20%; Tmax [8]: 3 to 4 h; Subjects who underwent dose delays/omissions ([3]; of 26 subjects): 18 subjects; Subjects with dose reductions ([3]; of 26 subjects): 9 subjects; Cycles modified ([3]; of 94 cycles delivered): 27 cycles; Cmax ([9]; Subject 22, day 8, unexpectedly high): 1750 ng/mL; Percentage extrapolated AUC0->inf, Mean ([9]; alisertib oral at RP2D with gemcitabine, cycle 1 day 8, plasma, N 4): 25.08%; Tmax ([9]; human, plasma, oral, Subject 24, day 8, unexpectedly long, read-out: Tmax): 24 h; Tmax ([9]; human, plasma, oral, other subjects here, day 8, read-out: Tmax): 1.5 to 4.5 h; Cmax ([9]; human, plasma, oral, observed here with gemcitabine, similar to previously reported, read-out: Cmax): 700 to 900 ng/mL; Tmax ([9]; human, plasma, po, alisertib oral at RP2D with gemcitabine, cycle 1 day 8, plasma, N 5, read-out: Tmax, Mean (converted)): 7.52 h; AUC(0-inf) ([9]; human, alisertib oral at RP2D with gemcitabine, cycle 1 day 8, plasma, N 4, read-out: AUC0->inf, Mean (converted)): 16300 ng·h/mL; AUC(0-t) ([9]; human, alisertib oral at RP2D with gemcitabine, cycle 1 day 8, plasma, N 5, read-out: AUC0->last, Mean (converted)): 11800 ng·h/mL; Cmax ([9]; human, alisertib oral at RP2D with gemcitabine, cycle 1 day 8, plasma, N 5, read-out: Cmax, Mean): 973 ng/mL; RP2D of alisertib in combination with paclitaxel ([2]; twice daily, schedule similar to the one reported here): 40 mg; Inhibition of selected CYPs [10]: not shown appreciable inhibition; Selectivity for AKA compared to Aurora Kinase B [11]: > 200 fold

For `O=c1ccn([C@@H]2O[C@H](CO)[C@@H](O)C2(F)F)c(=O)[nH]1` [dFdU, 2′, 2′-difluorodeoxyuridine], which “Percentage extrapolated AUC0->inf, Mean” value ([4]; Day 1 (without alisertib), N 5) is on record?
Its value is 18.13%.

And the “Percentage extrapolated AUC0->inf, Mean” value ([4]; Day 8 (with alisertib), N 4)?
Its value is 15.73%.

And the Cmax [4, 12]?
Its Cmax is 67900 ng/mL.

And the AUC(0-inf) [4, 12]?
Its AUC(0-inf) is 412 µg·h/mL.

What about the AUC(0-t) [4, 12] of the same compound?
The AUC(0-t) was 363 µg·h/mL.

What about the Cmax [4, 13] of the same compound?
The Cmax was 73800 ng/mL.

What about the AUC(0-inf) [4, 13] of the same compound?
Its AUC(0-inf) is 363 µg·h/mL.

And the AUC(0-t) [4, 13]?
Its AUC(0-t) is 343 µg·h/mL.

And the “Effect of co-administered alisertib on NCA PK parameters (day 1 vs day 8)” value [4]?
Its value is “No significant changes; also recorded: not significantly affected”.
